Source: patent US20110173718A1, “HERBICIDE TOLERANT PLANTS” (SYNGENTA CROP PROTECTION, INC., priority 2008, published 2011)
Where two headings read alike, the source gives them in different places.

System: weeds
Test: Glasshouse weed control, HST inhibitors alone and with A22, post-emergence
Format: in vivo
Conditions: 14 DAT, single replicate; for pest or weed control at 15.625 g/ha / pest or weed control at 62.5 g/ha / pest or weed control at 250 g/ha: 336 h, read-out: % control score, Obs
How it was run: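 Weeds grown in glasshouse trays (24-27 C day, 18-21 C night, ~15 h photoperiod) and track-sprayed in 0.2% X77 at […], pre-emergence or post-emergence at about 7-12 d. HPPD inhibitor A22 applied at 2 g/ha alone or mixed with HST herbicides. Damage scored 0–100% at 14 DAT; synergy calculated by Colby formula.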

[1] = Digitaria sanguinalis, DIGSA, 15.625 g/ha alone
[2] = Digitaria sanguinalis, DIGSA, 62.5 g/ha alone
[3] = Digitaria sanguinalis, DIGSA, 250 g/ha alone
[4] = Echinochloa crus-galli, ECHCG, 15.625 g/ha alone
[5] = Echinochloa crus-galli, ECHCG, 62.5 g/ha alone
[6] = Echinochloa crus-galli, ECHCG, 250 g/ha alone
[7] = Setaria faberi, SETFA, 15.625 g/ha alone
[8] = Setaria faberi, SETFA, 62.5 g/ha alone
[9] = Setaria faberi, SETFA, 250 g/ha alone

Structure (SMILES)	pest or weed control at 15.625 g/ha (BRAPL, 15.625 g/ha alone)	pest or weed control at 62.5 g/ha (BRAPL, 62.5 g/ha alone)	pest or weed control at 250 g/ha (BRAPL, 250 g/ha alone)	pest or weed control at 15.625 g/ha (PANMI, 15.625 g/ha alone)	pest or weed control at 62.5 g/ha (PANMI, 62.5 g/ha alone)	pest or weed control at 250 g/ha (PANMI, 250 g/ha alone)	pest or weed control at 15.625 g/ha (SIDSP, 15.625 g/ha alone)	pest or weed control at 62.5 g/ha (SIDSP, 62.5 g/ha alone)	pest or weed control at 250 g/ha (SIDSP, 250 g/ha alone)	pest or weed control at 15.625 g/ha [1]	pest or weed control at 62.5 g/ha [2]	pest or weed control at 250 g/ha [3]	pest or weed control at 15.625 g/ha [4]	pest or weed control at 62.5 g/ha [5]	pest or weed control at 250 g/ha [6]	pest or weed control at 15.625 g/ha [7]	pest or weed control at 62.5 g/ha [8]	pest or weed control at 250 g/ha [9]	further results
O=c1c(-c2c(Cl)ccc(Cl)c2Cl)c(O)c2nccnc2n1CC(F)F [Compound 2.14]	30%	60%	60%	40%	60%	90%	15%	30%	50%	10%	20%	20%	30%	50%	65%	25%	60%	70%	–
O=c1c(-c2c(F)ccc(Br)c2Cl)c(O)c2cccnc2n1CC(F)F [Compound 2.15]	0%	0%	5%	0%	0%	0%	0%	10%	15%	0%	0%	0%	0%	0%	2%	0%	0%	2%	–
O=c1c(-c2c(F)ccc(Br)c2Cl)c(O)c2nccnc2n1CC(F)F [Compound 2.8]	20%	55%	85%	40%	50%	80%	30%	45%	50%	5%	20%	60%	10%	40%	65%	5%	65%	60%	–
O=c1c(-c2c(F)ccc(F)c2Cl)c(O)c2nccnc2n1CC(F)F [Compound 2.3]	–	–	–	–	–	–	–	–	–	–	–	–	–	–	–	–	–	–	% control score, Obs (BRAPL, 15.625 g/ha alone): 20%; % control score, Obs (BRAPL, 62.5 g/ha alone): 50%; % control score, Obs (BRAPL, 250 g/ha alone): 70%; % control score, Obs (DIGSA, 15.625 g/ha alone): 2%; % control score, Obs (DIGSA, 62.5 g/ha alone): 35%; % control score, Obs (DIGSA, 250 g/ha alone): 45%; % control score, Obs (ECHCG, 15.625 g/ha alone): 5%; % control score, Obs (ECHCG, 62.5 g/ha alone): 30%; % control score, Obs (ECHCG, 250 g/ha alone): 40%; % control score, Obs (PANMI, 15.625 g/ha alone): 2%; % control score, Obs (PANMI, 62.5 g/ha alone): 55%; % control score, Obs (PANMI, 250 g/ha alone): 65%; % control score, Obs (SETFA, 15.625 g/ha alone): 5%; % control score, Obs (SETFA, 62.5 g/ha alone): 40%; % control score, Obs (SETFA, 250 g/ha alone): 60%; % control score, Obs (SIDSP, 15.625 g/ha alone): 10%; % control score, Obs (SIDSP, 62.5 g/ha alone): 40%; % control score, Obs (SIDSP, 250 g/ha alone): 55%
O=c1c(-c2cc(C(F)(F)F)ccc2Cl)c(O)c2nccnc2n1CC(F)F [Compound 2.9]	15%	55%	70%	30%	50%	70%	10%	20%	20%	2%	10%	15%	20%	40%	70%	20%	50%	65%	–
